{
  "source": "paper PMC5764437",
  "about": "“Discovery of novel, orally bioavailable, antileishmanial compounds using phenotypic screening” (PLoS Neglected Tropical Diseases, 2017)",
  "origin": "cited, not measured here",
  "test_system": "bloodstream form Lister 427 T. brucei",
  "parameters": "method as in PMID 23484493",
  "conditions": "bloodstream form of Trypanosoma brucei; read-out: T. brucei bloodstream form EC50 (previously reported); cited from earlier work",
  "data": [
    {"molecule": "Cc1ccc(-c2nc3ccccc3s2)cc1NC(=O)c1cc([N+](=O)[O-])c(N2CCN(C)CC2)cc1Cl", "note": "[Compound 5]", "values": [
      {"measurement": "EC50", "value": 27, "unit": "nM"}
    ]}
  ]
}
